Assay [1] relates to IL-6 in A549 cells stimulated with IL-1β. The assay is described as follows: A549 Cell Assay to Measure Inflammation Markers (inhibition of IL-1β-induced IL-6). It is filed as cell-based. The conditions noted are these: intrinsic activity, Emax class ranges; for Emax: Homo sapiens, A549, A549 Cell Assay to Measure Inflammation Markers; for A549 Emax: A549 Cell Assay to Measure Inflammation Markers. The essentials:
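Compound pre-incubated with A549 cells 1 h at 37 °C, then stimulated with IL-1β (1 ng/mL final, 0.1% DMSO). Supernatant IL-6 quantified by MSD immunoassay after a further incubation. IC50 and Emax derived.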

For assay [2], the target named is T1, Glucocorticoid Receptor (GR) (Homo sapiens, UniProt P04150).
T1 construct: purchased Invitrogen P2893
T1 sequence (P04150 1-777): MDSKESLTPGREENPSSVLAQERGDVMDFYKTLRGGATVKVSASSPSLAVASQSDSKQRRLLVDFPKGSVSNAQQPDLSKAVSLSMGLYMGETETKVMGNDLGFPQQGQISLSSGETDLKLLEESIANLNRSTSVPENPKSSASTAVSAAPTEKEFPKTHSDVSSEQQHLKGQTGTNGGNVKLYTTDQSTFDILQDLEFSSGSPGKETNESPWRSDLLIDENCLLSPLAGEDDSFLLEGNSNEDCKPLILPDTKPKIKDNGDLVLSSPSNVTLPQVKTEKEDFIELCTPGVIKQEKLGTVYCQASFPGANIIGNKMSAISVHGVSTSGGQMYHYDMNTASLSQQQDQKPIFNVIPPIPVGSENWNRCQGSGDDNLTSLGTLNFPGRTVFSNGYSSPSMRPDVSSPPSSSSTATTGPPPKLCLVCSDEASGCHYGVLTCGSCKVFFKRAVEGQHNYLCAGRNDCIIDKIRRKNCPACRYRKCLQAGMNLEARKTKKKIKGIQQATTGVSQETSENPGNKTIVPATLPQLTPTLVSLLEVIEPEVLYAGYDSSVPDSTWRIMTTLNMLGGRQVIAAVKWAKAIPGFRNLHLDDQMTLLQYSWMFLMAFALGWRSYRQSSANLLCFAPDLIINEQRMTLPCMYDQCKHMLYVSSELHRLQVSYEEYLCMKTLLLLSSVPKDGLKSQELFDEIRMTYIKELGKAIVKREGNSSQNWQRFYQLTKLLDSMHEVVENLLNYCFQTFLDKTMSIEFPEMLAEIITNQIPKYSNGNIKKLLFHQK
The assay is described as follows: GR Fluorescence Polarization Assay (PolarScreen Glucocorticoid Receptor Competitor Assay, Red). To be noted: IC50 class ranges, read-out: GR binding. The essentials: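 Competitive fluorescence-polarization assay using a red fluorescent glucocorticoid tracer with human GR in kit buffer. Compounds serially diluted 1:4 in DMSO, incubated with tracer and GR overnight at 4° C, then polarization read.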

In assay [1], `Cc1ccc(C2SCCNc3c2c(-c2ccccn2)nn3C)c(Cl)c1` (centres unmarked) yielded an Emax of less than 50%. Moreover, in assay [2], the IC50 was less than 100 nM.

In assay [1], `Cc1cc(Cl)ccc1C1SCC(C(C)C)Nc2c1c(-c1ccccn1)nn2C` (centres unmarked) [K.3] came in with an Emax of less than 50%. Besides, the IC50 in assay [2] was less than 100 nM.

`Cn1nc(C2CC2)c2c1NCC(C)(C)SC2c1ccc(Cl)cc1F` (single isomer, unassigned) [M.4, 4-(4-chloro-2-fluorophenyl)-3-cyclopropyl-1,6,6-trimethyl-4,6,7,8-tetrahydro-1H-pyrazolo[3,4-e][1,4]thiazepine]: in assay [1], the “A549 Emax” value is listed as “D (a compound with Emax<50%)”. Also, the IC50 in assay [2] was less than 100 nM.

As for `Cc1cc(C(=O)Nc2cccnc2C)ccc1C1SC(C)(C)CNc2c1c(C)nn2C` (centres unmarked) [H.5], in assay [1], the Emax was less than 50%. Further, the IC50 in assay [2] is 1000 to 10000 nM.

As for `Cc1cc(C(=O)Nc2cccnc2C)ccc1[C@H]1CC[C@@](O)(C(F)(F)F)Cc2c1c(-c1ccccn1)nn2C` (racemic), in assay [1], the Emax is greater than 70%. Also, the IC50 in assay [2] was less than 100 nM.

`Cc1nn(C)c2c1C(c1ccc(Cl)cc1Cl)[S+]([O-])C(C)(C)CN2` (centres unmarked) [L.1, 4-(2,4-dichlorophenyl)-1,3,6,6-tetramethyl-7,8-dihydro-4H-pyrazolo[3,4-e][1,4]thiazepine 5-oxide] displayed an Emax in assay [1] of less than 50%. The IC50 in assay [2] is greater than 10000 nM.

With `Cn1nc(-c2ccncc2)c2c1NCCSC2c1ccc(Cl)cc1Cl` (centres unmarked) [D.18], the Emax in assay [1] is less than 50%. Besides, the IC50 in assay [2] fell in the range of 100 to 1000 nM.

As for `CCn1nc(-c2ccccn2)c2c1NCCSC2c1ccc(C(=O)Nc2cccnc2C)cc1C` (centres unmarked) [H.4], the Emax in assay [1] is greater than 70%. In addition, the IC50 in assay [2] is less than 100 nM.

In assay [1], `CCn1nc(-c2ccccn2)c2c1N[C@H](C)CS[C@H]2c1ccc(C#CC(C)(C)O)cc1C` (single isomer, unassigned) [M.31, 4-(4-(1-ethyl-7-methyl-3-(pyridin-2-yl)-4,6,7,8-tetrahydro-1H-pyrazolo[3,4-e][1,4]thiazepin-4-yl)-3-methylphenyl)-2-methylbut-3-yn-2-ol] displayed an Emax greater than 70%. In assay [2], the IC50 is less than 100 nM.

For the molecule `Cc1cc2c(cnn2-c2ccc(F)cc2)cc1C1SCC(=O)Nc2c1c(-c1ccccn1)nn2C` (racemic), in assay [1], the Emax was greater than 70%. In addition, the IC50 in assay [2] was less than 100 nM.

Regarding `Cc1cc(Cl)ccc1C1SC(C)(C)CNc2c1c(C1CC1)nn2C` (centres unmarked) [D.45], in assay [1], the Emax was greater than 60%. Also, the IC50 in assay [2] is less than 100 nM.

For `CCn1nc(-c2ccccn2)c2c1NCCSC2c1ccc(C(=O)Nc2n[nH]cc2C#N)cc1C` (centres unmarked) [S.8], in assay [1], the Emax was greater than 50%. In addition, the IC50 in assay [2] is less than 100 nM.

Molecule `Cc1ncccc1NC(=O)c1ccc(-c2nn(C)c3c2C(c2ccc(Cl)cc2Cl)SCCN3)nc1` (centres unmarked) [F.2] showed an Emax in assay [1] of less than 50%. Moreover, the IC50 in assay [2] was 1000 to 10000 nM.

In assay [1], `Cc1cc(CCC(C)(C)O)ccc1[C@@H]1SC[C@@H](C)Nc2c1c(-c1ccccn1)nn2C` (single isomer, unassigned) [M.44, 4-(4-(1,7-dimethyl-3-(pyridin-2-yl)-4,6,7,8-tetrahydro-1H-pyrazolo[3,4-e][1,4]thiazepin-4-yl)-3-methylphenyl)-2-methylbutan-2-ol] showed an Emax greater than 60%. The IC50 in assay [2] is less than 100 nM.

The molecule `Cc1cc(C#N)ccc1C1SCCNc2onc(-c3ccccn3)c21` (centres unmarked) [G.9] displayed an Emax in assay [1] of less than 50%. Moreover, the IC50 in assay [2] is less than 100 nM.

In the case of `CCn1nc(-c2ccccn2)c2c1NCCSC2c1ccc(C(=O)Nc2cc(C)nn2C)cc1C` (centres unmarked) [S.2], the Emax in assay [1] was greater than 70%. In addition, the IC50 in assay [2] is less than 100 nM.

For `Cc1cc(C(=O)Nc2cccnc2C)ccc1[C@H]1SCCNc2c1c(-c1ccccn1)nn2C`, in assay [1], the “A549 Emax” value is “B (a compound with Emax>60%)”. Moreover, the IC50 in assay [2] was 100 to 1000 nM.

Take `CCn1nc(-c2ccccn2)c2c1NCCSC2c1ccc(C#N)cc1C` (single isomer, unassigned) [M.22, 3-methyl-4-(1-ethyl-3-(pyridin-2-yl)-4,6,7,8-tetrahydro-1H-pyrazolo[3,4-e][1,4]thiazepin-4-yl)benzonitrile]: the Emax in assay [1] is greater than 70%. Further, in assay [2], the IC50 is less than 100 nM.

Regarding `Cc1cc(Cl)cnc1C1SCCNc2c1c(-c1ccccn1)nn2C` (centres unmarked) [D.21], in assay [1], the Emax was less than 50%. Moreover, the IC50 in assay [2] lay within 100 to 1000 nM.

Take `Cc1cc(Cl)ccc1C1SCC(C)Nc2c1c(-c1ccccn1)nn2C` (single isomer, unassigned): in assay [1], the Emax is less than 50%. For the same molecule, in assay [2], the IC50 lay within 1000 to 10000 nM.

As for `Cc1n[nH]c2c1C(c1ccc(Cl)cc1Cl)SC(C)(C)CN2` (centres unmarked) [D.63], the maximum response (Emax) in assay [1] was less than 50%. Further, the IC50 in assay [2] is 1000 to 10000 nM.

As for `Cc1cc(Br)ccc1C1SCCNc2onc(-c3ccccn3)c21` (centres unmarked) [D.44, 4-(4-bromo-2-methyl-phenyl)-3-(2-pyridyl)-4,6,7,8-tetrahydroisoxazolo-[5,4-e][1,4]thiazepine], the Emax in assay [1] is less than 50%. The IC50 in assay [2] is less than 100 nM.

`Cc1cc(Cl)ccc1C1SCCNc2c1c(C)nn2C` (centres unmarked) [D.59] had an Emax in assay [1] of less than 50%. Further, in assay [2], the IC50 fell in the range of 100 to 1000 nM.

For the molecule `Cc1cc(Cl)ccc1C1SC(C)(C)CNc2c1c(C)nn2C1CCCC1` (centres unmarked) [D.70], the Emax in assay [1] is less than 50%. In addition, in assay [2], the IC50 is 100 to 1000 nM.

For the molecule `Cc1cc(Cl)ccc1C1SCCNc2c1c(O)nn2C` (centres unmarked) [D.73, 4-(4-chloro-2-methyl-phenyl)-1-methyl-4,6,7,8-tetrahydropyrazolo[3,4-e][1,4]thiazepin-3-ol], the Emax in assay [1] is less than 50%. In assay [2], the IC50 is greater than 10000 nM.

Molecule `Cc1nn(C)c2c1C(c1ccc(Cl)cc1Cl)SCCN2` (centres unmarked) [D.80] returned an Emax in assay [1] of less than 50%. The IC50 in assay [2] was in the range of 100 to 1000 nM.

For `Cc1ccc(Cl)cc1C1SC(C)(C)CNc2c1c(C1CC1)nn2C` (centres unmarked) [D.46], the Emax in assay [1] was less than 50%. The IC50 in assay [2] is less than 100 nM.

`Cc1cc(Cl)ccc1[C@H]1SC(C)(C)[C@@H](c2ccccc2)Nc2c1c(C)nn2C` (racemic) [K.2] displayed a maximum response (Emax) in assay [1] of less than 50%. The IC50 in assay [2] fell in the range of 1000 to 10000 nM.

With `COc1cc(Cl)ccc1C1SC(C)(C)CNc2c1c(C1CC1)nn2C` (centres unmarked) [D.47], the Emax in assay [1] was less than 50%. Also, in assay [2], the IC50 lay in the range of 100 to 1000 nM.

`Cc1nn(C)c2c1C(c1ccc(Cl)cc1Cl)SC1(CCC1)CN2` (centres unmarked) [D.66] showed an Emax in assay [1] of less than 50%. Further, the IC50 in assay [2] was less than 100 nM.

As for `Cc1nn(C)c2c1C(c1ccc(Cl)cc1)SC(CCO)CN2` (centres unmarked) [D.68, 2-(4-(4-chlorophenyl)-1,3-dimethyl-4,6,7,8-tetrahydro-1H-pyrazolo[3,4-e][1,4]thiazepin-6-yl)ethanol 2,2,2-trifluoracetate], the maximum response (Emax) in assay [1] is less than 50%. Further, in assay [2], the IC50 is less than 100 nM.

As for `Cc1cc(C#N)ccc1[C@@H]1S[C@@H](C)CNc2c1c(C1CC1)nn2C` (racemic) [G.4], the maximal response (Emax) in assay [1] is less than 50%. In assay [2], the IC50 was less than 100 nM.

In assay [1], `Cc1cc(Cl)ccc1[C@@H]1SC[C@@H](C)Nc2c1c(-c1ccccn1)nn2C` showed an Emax greater than 70%. Also, in assay [2], the IC50 was less than 100 nM.

As for `CCn1nc(-c2ccccn2)c2c1NCCSC2c1ccc(C(=O)Nc2n[nH]c(C)c2C#N)cc1C` (centres unmarked) [S.9], the Emax in assay [1] was less than 50%. Also, in assay [2], the IC50 is less than 100 nM.

`Cc1cc(C(F)(F)F)ccc1C1SCCNc2c1c(-c1ccccn1)nn2C` (centres unmarked) [D.41] registered an Emax in assay [1] of less than 50%. The IC50 in assay [2] was less than 100 nM.

On to `Cc1nn(C)c2c1C(c1ccc(Cl)cc1Cl)SC(C)(C)C(=O)N2C` (centres unmarked), for which the Emax in assay [1] was less than 50%. Also, the IC50 in assay [2] is 1000 to 10000 nM.

On to `Cn1nc(-c2ccccn2)c2c1NCCSC2c1ccc(Cl)cc1CF` (centres unmarked) [D.39], for which the maximal effect (Emax) in assay [1] is greater than 60%. Further, the IC50 in assay [2] was less than 100 nM.

In assay [1], `COc1cc(Cl)ccc1C1SCCNc2c1c(-c1ccccn1)nn2C` (centres unmarked) [D.5] returned an Emax of less than 50%. For the same molecule, in assay [2], the IC50 is less than 100 nM.

`Cc1sc(Br)cc1C1SCCNc2c1c(-c1ccccn1)nn2C` (centres unmarked) [D.34, 4-(5-bromo-2-methyl-3-thienyl)-1-methyl-3-(2-pyridyl)-4,6,7,8-tetrahydropyrazolo[3,4-e][1,4]thiazepine]: the Emax in assay [1] was less than 50%. The IC50 in assay [2] was less than 100 nM.

Molecule `Cc1cc(Cl)ccc1C1SCCNc2c1c(-c1ccccn1)nn2C` (single isomer, unassigned) showed an Emax in assay [1] of less than 50%. Further, the IC50 in assay [2] was 100 to 1000 nM.

For the molecule `Cc1cc(C(N)=O)ccc1C1SC(C)(C)CNc2c1c(C)nn2C` (centres unmarked) [I.4], the Emax in assay [1] was less than 50%. Further, the IC50 in assay [2] was in the range of 1000 to 10000 nM.

Take `Cn1nc(C2CCCC2)c2c1NCC(C)(C)SC2c1ccc(Cl)cc1Cl` (centres unmarked) [D.79]: the Emax in assay [1] was less than 50%. Further, in assay [2], the IC50 is less than 100 nM.

For `Cc1cc(Cl)ccc1[C@H]1SC[C@H](C)Nc2c1c(-c1ccccn1)nn2C`, the Emax in assay [1] is less than 50%. The IC50 in assay [2] lay in the range of 1000 to 10000 nM.

The values above are taken from patent publication US9150592B2, “Heterocyclic nuclear hormone receptor modulators” (AbbVie Inc., priority 2012, dated 2015).
